Laboratory results taken from the supplement of paper PMC10307832.

Key:
Experiment in all cases: relative viability (nuclei count vs DMSO), 5 days (fraction); higher = more cells survive
[1] = compound: COC1=C(C=C(C=C1)C2=CC3=NC=CN3C(=N2)NC4=C(C=CC=N4)C(=O)N)OC [BAY61-3606] + Cc1cc(Nc2cc(N3CCN(C)CC3)nc(Sc3ccc(NC(=O)C4CC4)cc3)n2)n[nH]1 [Tozasertib] (partner 0.1 µM)
Method in brief: (§1)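 One day after seeding in 1536-well plates, lung cancer cell lines were dosed by pin tool. Dosing was either single-drug or a fixed anchor-drug dose plus five library-drug doses (not always all listed) in √10 steps. After 5 days, nuclei were stained in one fix-and-stain step and counted on 4× images, and relative viability is the nuclei count of treated wells over that of vehicle wells, given as the median of duplicate plates.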

[2] = compound: COC1=C(C=C(C=C1)C2=CC3=NC=CN3C(=N2)NC4=C(C=CC=N4)C(=O)N)OC [BAY61-3606] + O=C(c1cc(Cc2n[nH]c(=O)c3ccccc23)ccc1F)N1CCN(C(=O)C2CC2)CC1 [Olaparib] (partner 8 µM)
Method in brief: as §1

[3] = compound: COC1=C(C=C(C=C1)C2=CC3=NC=CN3C(=N2)NC4=C(C=CC=N4)C(=O)N)OC [BAY61-3606] + CC(C)C[C@H](NC(=O)[C@H](Cc1ccccc1)NC(=O)c1cnccn1)B(O)O [Bortezomib] (partner 0.002 µM)
Method in brief: as §1

[4] = compound: COC1=C(C=C(C=C1)C2=CC3=NC=CN3C(=N2)NC4=C(C=CC=N4)C(=O)N)OC [BAY61-3606] + CS(=O)(=O)CCNCc1ccc(-c2ccc3ncnc(Nc4ccc(OCc5cccc(F)c5)c(Cl)c4)c3c2)o1 [Lapatinib] (partner 2 µM)
Method in brief: as §1

Cell Line | relative viability ([1]; first compound 0.02 µM) | relative viability ([1]; first compound 0.06325 µM) | relative viability ([1]; first compound 0.2 µM) | relative viability ([1]; first compound 0.6325 µM) | relative viability ([1]; first compound 2 µM) | relative viability ([2]; first compound 0.02 µM) | relative viability ([2]; first compound 0.06325 µM) | relative viability ([2]; first compound 0.2 µM) | relative viability ([2]; first compound 0.6325 µM) | relative viability ([2]; first compound 2 µM) | relative viability ([3]; first compound 0.02 µM) | relative viability ([3]; first compound 0.06325 µM) | relative viability ([3]; first compound 0.2 µM) | relative viability ([3]; first compound 0.6325 µM) | relative viability ([3]; first compound 2 µM) | relative viability ([4]; first compound 0.02 µM) | relative viability ([4]; first compound 0.06325 µM) | relative viability ([4]; first compound 0.2 µM) | relative viability ([4]; first compound 0.6325 µM) | relative viability ([4]; first compound 2 µM)
NCI-H2342 | 0.574 | 0.466 | 0.47 | 0.668 | 0.525 | 0.352 | 0.406 | 0.399 | 0.495 | 0.432 |  |  |  |  |  |  |  |  |  | 
HCC-15 | 0.29 | 0.194 | 0.222 | 0.2 | 0.149 | 0.668 | 0.685 | 0.729 | 0.719 | 0.655 | 1.04 | 1.06 | 0.967 | 0.937 | 1.01 | 0.891 | 0.921 | 0.851 | 0.875 | 0.792
A-427 | 0.222 | 0.183 | 0.171 | 0.222 | 0.187 | 0.79 | 0.694 | 0.765 | 0.777 | 0.715 | 1.04 | 0.889 | 0.994 | 1.05 | 0.871 | 1.07 | 1.1 | 1.05 | 1.04 | 1.01
NCI-H2347 | 0.531 | 0.384 | 0.394 | 0.427 | 0.32 | 0.575 | 0.629 | 0.603 | 0.597 | 0.559 | 1.09 | 0.815 | 0.971 | 0.869 | 1.01 | 1.05 | 0.951 | 0.924 | 0.945 | 0.941
NCI-H1755 | 0.681 | 0.422 | 0.49 | 0.438 | 0.403 | 0.908 | 0.883 | 0.852 | 0.911 | 0.789 | 0.953 | 0.961 | 0.957 | 1.07 | 0.923 | 1.08 | 1.01 | 0.994 | 1.12 | 0.95
SK-LU-1 | 0.315 | 0.282 | 0.264 | 0.231 | 0.2 | 0.599 | 0.458 | 0.646 | 0.429 | 0.355 | 1.38 | 1.15 | 1.12 | 1.21 | 0.961 | 0.953 | 0.81 | 0.885 | 0.862 | 0.532
NCI-H1975 | 0.763 | 0.521 | 0.323 | 0.257 | 0.11 | 0.858 | 0.798 | 0.733 | 0.707 | 0.516 | 0.427 | 0.349 | 0.421 | 0.395 | 0.244 | 0.996 | 0.881 | 0.963 | 0.925 | 0.595
NCI-H1703 |  |  |  |  |  | 0.626 | 0.383 | 0.448 | 0.541 | 0.276 | 0.486 | 0.321 | 0.291 | 0.368 | 0.234 | 1.55 | 1.2 | 0.978 | 1.02 | 0.891
HCC-44 | 0.91 |  | 0.832 | 0.533 | 0.327 | 0.955 | 0.974 | 0.979 | 0.901 | 0.958 | 0.889 | 0.847 | 0.845 | 0.878 | 0.947 | 1.02 | 1.02 | 1.02 | 1.06 | 1.21
NCI-H1793 | 0.313 | 0.227 |  | 0.203 | 0.222 | 0.988 | 0.814 | 1 | 1.03 | 0.718 |  |  |  |  |  | 0.479 | 0.775 | 0.823 | 0.948 | 0.796
NCI-H596 | 1.2 | 0.941 | 0.746 | 0.844 | 0.435 | 0.74 | 0.75 | 0.722 | 0.925 | 0.544 | 0.99 | 1.08 | 1.17 | 1.48 | 1.1 | 1.09 | 1.02 | 1.14 | 1.21 | 1.04
PC-3 [JPC-3] |  | 0.891 | 0.889 | 0.837 | 0.613 | 1.25 | 1.16 | 1.17 | 1.17 | 1.06 | 0.833 | 0.841 | 0.826 | 0.834 | 0.793 | 0.468 | 0.482 | 0.478 | 0.436 | 0.471
HCC-366 | 0.115 | 0.0576 | 0.0642 | 0.0443 | 0.0501 | 0.406 | 0.436 | 0.365 | 0.324 | 0.235 | 1.04 | 1.16 | 1.1 | 0.998 | 0.964 | 1.05 | 1.09 | 1.13 | 1.08 | 0.955
NCI-H1623 | 0.485 | 0.439 | 0.458 | 0.394 | 0.328 |  |  |  |  |  |  |  |  |  |  |  |  |  |  | 
Calu-6 |  |  |  |  |  | 0.659 | 0.562 | 0.543 | 0.551 | 0.466 | 1.12 | 1.15 | 1.06 | 1.01 | 0.831 | 1.09 | 1.23 | 1.09 | 1.02 | 0.923
LCLC-103H | 0.459 | 0.335 | 0.484 | 0.352 | 0.213 | 0.764 | 0.786 | 0.847 | 0.758 | 0.772 | 1.28 | 1.01 | 1.03 | 1.07 | 1.05 |  |  |  |  | 
CAL-12T | 0.289 | 0.305 | 0.198 | 0.303 | 0.165 | 0.748 | 0.773 | 0.735 | 0.758 | 0.53 | 1.2 | 0.939 | 0.862 | 0.78 | 0.799 | 0.805 | 0.596 | 0.613 | 0.768 | 0.637
NCI-H23 | 0.378 | 0.342 | 0.296 | 0.342 | 0.236 | 0.327 | 0.304 | 0.289 | 0.305 | 0.288 | 0.97 | 1.36 | 0.871 | 1.13 | 0.77 | 1.16 | 1.39 | 1.11 | 0.985 | 0.95
